These results are taken from patent EP2860184A1, “Dihydrogenphosphate salt of Tenofovir disoproxil” (Zentiva, k.s., priority 2013, dated 2015).

Data set [1] can be described thus: API solid form change during drug product manufacture (wet granulation). Format: physicochemical. The source says: Moreover, we observed partial the conversion (about 30 %) of Tenofovir disoproxil fumarate (Formula II) in Tenofovir disoproxil hemifumarate (Formula III) during our formulation trials using wet granulation process.
Diffraction patterns were obtained with laboratory X'PERT PRO MPD PANalytical diffractometer, radiation used CuKα (λ = 1.542/Å). Generator settings: excitation voltage 45 kV, anodic current 40 mA. Scan description: scan type - gonio, measurement range 2 - 40º 2θ, step size 0.01º 2θ, step time: 0.5 s. Samples were measured as received on Si plate (zero background holder). Incident beam optics: programmable divergence slits (irradiated length 10 mm), 10 mm mask, 1/4º anti-scatter fixed slit, 0.02 rad Soller slits. Diffracted beam optics: X'Celerator detector, scanning mode, active length 2.122º, 0.02 rad Soller slits, anti-scatter slit 5.0 mm, Ni filter.
Tenofovir disoproxil dihydrogenphosphate (300 g), lactose monohydrate (206 g), microcrystalline cellulose (Avicel pH 101; 50 g), croscarmellose sodium (30 g), polyvinylpyrolidone K-25 (20 g) and magnesium stearate (10 g) were sieved. The mixture was loaded to high shear granulator. Purified water (150 ml) was sprayed on the blend in short time intervals and the mixture was kneaded to granules. The wet granules were dried in an oven at 60°C. The dried granules were milled and sieved. […]

Data set [2] can be described thus: Apparent solubility and dissolution rate of the salts (Figure 3). Format: physicochemical. Conditions: compared with other salts, including Tenofovir disoproxil fumarate. The source says: The active substance solubility is important for bioavailability of the drug.
• Figure 1: DSC of Tenofovir disoproxil dihydrogenphosphate • Figure 2: 1H NMR of Tenofovir disoproxil dihydrogenphosphate • Figure 3: The apparent solubility and dissolution rate of Tenofovir disoproxil salts • Figure 4: Typical HPLC chromatogram of Tenofovir disoproxil dihydrogenphosphate prepared from Tenofovir disoproxil base • Figure 5: SEM images of Tenofovir disoproxil dihydrogenphosphate prepared from Tenofovir disoproxil • Figure 6: Typical HPLC chromatogram of Tenofovir disoproxil dihydrogenphosphate prepared from Tenofovir disoproxil fumarate • Figure 7: SEM images of Tenofovir disoproxil dihydrogenphosphate prepared from Tenofovir disoproxil fumarate

Data set [3] is described as follows: Chemical stability stress test (HPLC purity before and after). Conditions: for Starting HPLC purity (%): before the stress test; for HPLC purity (%) after the stress test: stress conditions: 80°C for 46 hours, 2760 min. Format: physicochemical. As for the experimental part: Physico-chemical properties (stability and solubility) of Tenofovir disoproxil dihydrogenphosphate were compared with other known salts (Tenofovir disoproxil fumarate, citrate, succinate, L-tartrate, D-tartrate, maleate) prepared according to published procedures. Table 2: Chemical stability of Tenofovir disoproxil and its salts (stress conditions: 80°C for 46 hours)
Column: Zorbax Eclipse XDB C18 RRHD, 100 x 3.0 mm (I.D.) x 1.8 um (Agilent), Run Time: 11.5 min., Injection Volume: 2 µl, Mobile Phase: MFA: 10mM K2HPO4 pH=7,0; MFB: ACN; MFA: 90-40-40-90; t: 0-7-9-9,5; F: 0,5 ml/min; 35°C

For data set [4] the following is noted: in the presence of increased humidity and/or temperature; cited from earlier work.

Where a name gives a salt, the structure may show the parent alone.

Take `CC(C)OC(=O)OCOP(=O)(CO[C@H](C)Cn1cnc2c(N)ncnc21)OCOC(=O)OC(C)C` [Tenofovir disoproxil dihydrogenphosphate]: the “changes in API solid form” value in data set [1] (manufacturing of a drug product) is given as “no changes in API solid form”. In addition, the Solubility entry in data set [2] is recorded as “superior to other salts”. Also, in data set [3], the “Starting HPLC purity (%)” value is 99.66% and the “HPLC purity (%) after the stress test” value amounted to 97.69%. Further, the “Chemical stability compared with other salts” value in data set [3] (compared with fumarate, citrate, succinate, L-tartrate, D-tartrate, maleate, 80°C for 46 hours) is “the most stable salt of Tenofovir disoproxil”.

Turning to `CC(C)OC(=O)OCOP(=O)(CO[C@H](C)Cn1cnc2c(N)ncnc21)OCOC(=O)OC(C)C` [Tenofovir disoproxil succinate], in data set [3], the “Starting HPLC purity (%)” value is reported as 99.04% and the “HPLC purity (%) after the stress test” value turned out to be 54.16%.

For `CC(C)OC(=O)OCOP(=O)(CO[C@H](C)Cn1cnc2c(N)ncnc21)OCOC(=O)OC(C)C` [Tenofovir disoproxil L-tartrate], in data set [3], the “Starting HPLC purity (%)” value was 98.10% and the “HPLC purity (%) after the stress test” value is given as 21.12%.

Regarding `CC(C)OC(=O)OCOP(=O)(CO[C@H](C)Cn1cnc2c(N)ncnc21)OCOC(=O)OC(C)C` [Tenofovir disoproxil fumarate], the “conversion in Tenofovir disoproxil hemifumarate” value in data set [1] (formulation trials using wet granulation process) was “about 30%”. Also, in data set [3], the “Starting HPLC purity (%)” value was 99.81% and the “HPLC purity (%) after the stress test” value came out at 4.08%. Also, in data set [4], the solid form conversion entry is “converts into Tenofovir disoproxil hemifumarate”.

As for `CC(C)OC(=O)OCOP(=O)(CO[C@H](C)Cn1cnc2c(N)ncnc21)OCOC(=O)OC(C)C` [Tenofovir disoproxil (free base), 9-[-2-(R)-[[bis[[(isopropoxycarbonyl)oxy]methoxy]phosphinoyl]methoxy]propyl] adenine], in data set [3], the “Starting HPLC purity (%)” value was 95.66% and the “HPLC purity (%) after the stress test” value is 6.13%.

For `CC(C)OC(=O)OCOP(=O)(CO[C@H](C)Cn1cnc2c(N)ncnc21)OCOC(=O)OC(C)C` [Tenofovir disoproxil D-tartrate], in data set [3], the “Starting HPLC purity (%)” value was found to be 99.66% and the “HPLC purity (%) after the stress test” value is 25.51%.
